According to patent publication US7642251B2, “Compounds for the treatment of hepatitis C” (Bristol-Myers Squibb Company, priority 2007, dated 2010):
Read-outs that look alike come from different tables or passages of the source.

Legend:
HCV NS5B = target: T1, HCV NS5B (Hepatitis C virus genotype 1b, UniProt Q9WMX2); assay: Modified HCV NS5B RdRp enzyme assay (preincubation protocol); format: biochemical
T1 construct: The cDNA encoding the NS5B protein of HCV, genotype 1b; made in house; host or cells: E. coli BL21(DE3)
T1 sequence (Q9WMX2 2420-2992): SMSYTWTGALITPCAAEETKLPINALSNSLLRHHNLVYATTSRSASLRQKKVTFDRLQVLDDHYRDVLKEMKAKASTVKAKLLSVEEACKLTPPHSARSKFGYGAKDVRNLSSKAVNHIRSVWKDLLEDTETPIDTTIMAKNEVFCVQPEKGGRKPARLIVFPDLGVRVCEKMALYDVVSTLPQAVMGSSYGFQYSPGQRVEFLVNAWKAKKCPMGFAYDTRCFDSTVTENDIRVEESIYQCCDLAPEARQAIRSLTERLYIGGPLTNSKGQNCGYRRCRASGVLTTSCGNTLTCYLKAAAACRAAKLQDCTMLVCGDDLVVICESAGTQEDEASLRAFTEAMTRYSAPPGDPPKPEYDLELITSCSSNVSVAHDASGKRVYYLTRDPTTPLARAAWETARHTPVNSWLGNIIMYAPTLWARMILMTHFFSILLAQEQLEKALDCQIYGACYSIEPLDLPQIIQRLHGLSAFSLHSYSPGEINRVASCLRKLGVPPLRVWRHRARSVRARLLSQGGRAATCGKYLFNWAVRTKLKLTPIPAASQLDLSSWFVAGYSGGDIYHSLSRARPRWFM
Method: HCV NS5B RdRp cloning, expression, and purification. The cDNA encoding the NS5B protein of HCV, genotype 1b, was cloned into the pET21a expression vector. The protein was expressed with an 18 amino acid C-terminal truncation to enhance the solubility. The E. coli competent cell line BL21(DE3) was used for expression of the protein. Cultures were grown at 37° C. for ˜4 hours until the cultures reached an optical density of 2.0 at 600 nm. The cultures were cooled to 20° C. and induced with 1 mM IPTG. Fresh ampicillin was added to a final concentration of 50 μg/ml and the cells were grown overnight at 20° C.
Cell pellets (3 L) were lysed for purification to yield 15-24 mgs of purified NS5B. The lysis buffer consisted of 20 mM Tris-HCl, pH 7.4, 500 mM NaCl, 0.5% triton X-100, 1 mM DTT, 1 mM EDTA, 20% glycerol, 0.5 mg/ml lysozyme, 10 mM MgCl2, 15 ug/ml deoxyribonuclease I, and Complete™ protease inhibitor tablets (Roche). After addition of the lysis buffer, frozen cell pellets were resuspended using a tissue homogenizer. To reduce the viscosity of the sample, aliquots of the lysate were sonicated on ice using a microtip attached to a Branson sonicator. The sonicated lysate was centrifuged at 100,000×g for 1 hr at 4° C. and filtered through a 0.2 μm filter unit (Corning).
The protein was purified using three sequential chromatography steps: Heparin sepharose CL-6B, polyU sepharose 4B, and Hitrap SP sepharose (Pharmacia). The chromatography buffers were identical to the lysis buffer but contained no lysozyme, deoxyribonuclease I, MgCl2 or protease inhibitor and the NaCl concentration of the buffer was adjusted according to the requirements for charging the protein onto the column. Each column was eluted with a NaCl gradient which varied in length from 5-50 column volumes depending on the column type. After the final chromatography step, the resulting purity of the enzyme is >90% based on SDS-PAGE analysis. The enzyme was aliquoted and stored at −80° C.
Standard HCV NS5B RdRp enzyme assay. HCV RdRp genotype 1b assays were run in a final volume of 60 μl in 96 well plates (Costar 3912). The assay buffer is composed of 20 mM Hepes, pH 7.5, 2.5 mM KCl, 2.5 mM MgCl2, 1 mM DTT, 1.6 U RNAse inhibitor (Promega N2515), 0.1 mg/ml BSA (Promega R3961), and 2% glycerol. All compounds were serially diluted (3-fold) in DMSO and diluted further in water such that the final concentration of DMSO in the assay was 2%. HCV RdRp genotype 1b enzyme was used at a final concentration of 28 nM. A polyA template was used at 6 nM, and a biotinylated oligo-dT12 primer was used at 180 nM final concentration. Template was obtained commercially (Amersham 27-4110). Biotinylated primer was prepared by Sigma Genosys. 3H-UTP was used at 0.6 μCi (0.29 μM total UTP). Reactions were initiated by the addition of enzyme, incubated at 30° C. for 60 min, and stopped by adding 25 μl of 50 mM EDTA containing SPA beads (4 μg/μl, Amersham RPNQ 0007). Plates were read on a Packard Top Count NXT after >1 hr incubation at room temperature.
Modified HCV NS5B RdRp enzyme assay. A modified enzyme assay was performed essentially as described for the standard enzyme assay except for the following: The biotinylated oligo dT12 primer was precaptured on streptavidin-coated SPA beads by mixing primer and beads in assay buffer and incubating at room temperature for one hour. Unbound primer was removed after centrifugation. The primer-bound beads were resuspended in 20 mM Hepes buffer, pH 7.5 and used in the assay at final concentrations of 20 nM primer and 0.67 μg/μl beads. Order of addition in the assay: enzyme (14 nM) was added to diluted compound followed by the addition of a mixture of template (0.2 nM), 3H-UTP (0.6 μCi, 0.29 μM), and primer-bound beads, to initiate the reaction; concentrations given are final. Reactions were allowed to proceed for 4 hours at 30° C.
IC50 values for compounds were determined using seven different [I]. […]

HCV replicon cells = assay: HCV replicon FRET assay; format: cell-based; settings: Hepatitis C virus
Source text: FRET Assay Preparation. To perform the HCV FRET screening assay, 96-well cell culture plates were used. The FRET peptide (Anaspec, Inc.) (Taliani et al., Anal. Biochem. 1996, 240, 60-67) contains a fluorescence donor, EDANS, near one end of the peptide and an acceptor, DABCYL, near the other end. The fluorescence of the peptide is quenched by […] resonance energy transfer (RET) between the donor and the acceptor, but as the NS3 protease cleaves the peptide the products are released from RET quenching and the fluorescence of the donor becomes apparent. The assay reagent was made as follows: 5× cell Luciferase cell culture lysis reagent from Promega (#E153A) diluted to 1× with dH2O, NaCl added to 150 mM final, the FRET peptide diluted to 20 μM final from a 2 mM stock.
To prepare plates, HCV replicon cells, with or without a Renilla luciferase reporter gene, were trypsinized and placed into each well of a 96-well plate with titrated test compounds added in columns 3 through 12; columns 1 and 2 contained a control compound (HCV protease inhibitor), and the bottom row contained cells without compound. The plates were then placed in a CO2 incubator at 37° C.
Assays. Subsequent to addition of the test compounds described above (FRET Assay Preparation), at various times the plate was removed and Alamar blue solution (Trek Diagnostics, #00-100) was added per well as a measure of cellular toxicity. After reading in a Cytoflour 4000 instrument (PE Biosystems), plates were rinsed with PBS and then used for FRET assay by the addition of 30 ul of the FRET peptide assay reagent described above (FRET Assay Preparation) per well. The plate was then placed into the Cytoflour 4000 instrument which had been set to 340 excite/490 emission, automatic mode for 20 cycles and the plate read in a kinetic mode. Typically, the signal to noise using an endpoint analysis after the reads was at least three-fold. Alternatively, after Alamar blue reading, plates were rinsed with PBS, 50 ul of DMEM (high glucose) without phenol red was added and plates were then used for luciferase assay using the Promega Dual-Glo Luciferase Assay System.
Compound analysis was determined by quantification of the relative HCV replicon inhibition and the relative cytotoxicity values. To calculate cytoxicity values, the average Alamar Blue fluorescence signals from the control wells were set as 100% non-toxic. The individual signals in each of the compound test wells were then divided by the average control signal and multiplied by 100% to determine […]. To calculate the HCV replicon inhibition values, an average background value was obtained from the two wells containing the highest amount of HCV protease inhibitor at the end of the assay period. These numbers were similar to those obtained from naïve Huh-7 cells.
The background numbers were then subtracted from the average signal obtained from the control wells and this number was used as 100% activity. The individual signals in each of the compound test wells were then divided by the averaged control values after background subtraction and multiplied by 100% to determine percent activity. EC50 values for a protease inhibitor titration were calculated as the concentration which caused a 50% reduction in FRET or luciferase activity. The two numbers generated for the compound plate, percent cytoxicity and percent activity were used to determine compounds of interest for further analysis.

[1] = preincubation protocol, read-out: IC50

Compound	IC50 (HCV NS5B; [1]) [nM]	EC50 (HCV replicon cells; FRET assay, read-out: EC50) [nM]	IC50 (HCV NS5B) [nM]	EC50 (HCV replicon cells) [nM]
COc1ccc2c(c1)C=C(c1ncccc1N(C)C)Cn1c-2c(C2CCCCC2)c2ccc(C(=O)O)cc21	4.58 to 500	4.58 to 500	–	–
COc1ccc2c(c1)C=C(c1cc(C(=O)N3CCOCC3)ccn1)Cn1c-2c(C2CCCCC2)c2ccc(C(=O)O)cc21	> 500	> 500	–	–
COc1ccc2c(c1)C=C(c1ncccc1S(=O)(=O)N1CCOCC1)Cn1c-2c(C2CCCCC2)c2ccc(C(=O)O)cc21	4.58 to 500	4.58 to 500	–	–
COc1ccc2c(c1)C=C(c1ncccc1S(=O)(=O)N1C3CCC1CN(C)C3)Cn1c-2c(C2CCCCC2)c2ccc(C(=O)O)cc21	–	–	> 500	4.58 to 500
COc1ccc2c(c1)C=C(c1ncccc1N1CC(C)(C)C1=O)Cn1c-2c(C2CCCCC2)c2ccc(C(=O)O)cc21	4.58 to 500	4.58 to 500	–	–
COc1ccc2c(c1)C=C(c1ncccc1C(=O)N1CCN(C)CC1)Cn1c-2c(C2CCCCC2)c2ccc(C(=O)O)cc21	4.58 to 500	4.58 to 500	–	–
COc1ccc2c(c1)C=C(c1ncccc1C(=O)N(C)C)Cn1c-2c(C2CCCCC2)c2ccc(C(=O)O)cc21	4.58 to 500	4.58 to 500	–	–
COc1ccc2c(c1)C=C(c1ncccc1C(=O)N1CCCC1)Cn1c-2c(C2CCCCC2)c2ccc(C(=O)O)cc21	4.58 to 500	4.58 to 500	–	–
COc1ccc2c(c1)C=C(c1ncccc1C(=O)N1C3CCC1CN(C)C3)Cn1c-2c(C2CCCCC2)c2ccc(C(=O)O)cc21	–	–	4.58 to 500	4.58 to 500
COc1ccc2c(c1)C=C(c1ncccc1C(=O)N1CCC(O)CC1)Cn1c-2c(C2CCCCC2)c2ccc(C(=O)O)cc21	4.58 to 500	4.58 to 500	–	–
COc1ccc2c(c1)C=C(c1ncccc1C(=O)N1CCCCC1)Cn1c-2c(C2CCCCC2)c2ccc(C(=O)O)cc21	4.58 to 500	4.58 to 500	–	–
COc1ccc2c(c1)C=C(c1ncccc1C(=O)N1CCOCC1)Cn1c-2c(C2CCCCC2)c2ccc(C(=O)NS(=O)(=O)N(C)C)cc21	4.58 to 500	4.58 to 500	–	–
COc1ccc2c(c1)C=C(c1cccc(N3CCOCC3)n1)Cn1c-2c(C2CCCCC2)c2ccc(C(=O)NS(=O)(=O)N(C)C)cc21	4.58 to 500	4.58 to 500	–	–
COc1ccc2c(c1)C=C(c1ncccc1S(=O)(=O)N1C3CCC1CN(C)C3)Cn1c-2c(C2CCCCC2)c2ccc(C(=O)NS(=O)(=O)N(C)C)cc21	–	–	4.58 to 500	4.58 to 500
COc1ccc2c(c1)C=C(c1ncccc1C(=O)N1C3CCC1CN(C)C3)Cn1c-2c(C2CCCCC2)c2ccc(C(=O)NS(=O)(=O)N(C)C)cc21	–	–	4.58 to 500	4.58 to 500
